# Like-named read-outs stand apart in the source and are kept apart here.
# Experiments:
# Botrytis cinerea [1] = experiment: Gray mold disease control effect on cucumbers, foliar spray treatment; assay type: in vivo; details: cucumber gray mold, wettable powder foliar spray 1,000 L/ha, four days after inoculation
# powdery mildew = experiment: Powdery mildew control effect on wheat, foliar spray treatment; assay type: in vivo; details: wettable powder foliar spray 1,000 L/ha, seven days after inoculation
# wheat leaf rust = experiment: Rust control effect on wheat, foliar spray treatment; assay type: in vivo; details: wettable powder foliar spray 1,000 L/ha, twelve days after inoculation
# wheat brown rust = experiment: Brown rust control effect on wheat, seed treatment; assay type: in vivo; details: sixteen days after inoculation
# Procedure: A pot test was performed to evaluate the brown rust controlling effect on wheat using seed treatment. Compound (1(−)) or Compound (1(+)) was dissolved in DMSO so the treatment amount was 20 g ai/100 kg seeds or 2 g ai/100 kg seeds, and the solution was smeared on wheat seeds in a vial, and eight wheat seeds were seeded in a 80 cm^2 pot. These were irrigated from below in a greenhouse. Fifteen days after seeding, the seedlings were inoculated with wheat brown rust and then kept for two days in a box. These were again irrigated from below in a greenhouse.
# Phaeosphaeria nodorum = experiment: Antifungal test for pathogens (PDA plate), P.n; assay type: cell-based; details: PDA plate medium
# [2] = system: Pseudocercoporella herpotrichoides; experiment: Antifungal test for pathogens (PDA plate), P.h; assay type: cell-based; details: PDA plate medium
# Microdochium nivale = experiment: Antifungal test for pathogens (PDA plate), M.n; assay type: cell-based; details: PDA plate medium
# Gaeumannomyces graminis = experiment: Antifungal test for pathogens (PDA plate), G.g; assay type: cell-based; details: PDA plate medium
# Fusarium graminearum = assay type: cell-based; details: PDA plate medium
# Ustilago nuda = experiment: Antifungal test for pathogens (PDA plate), U.n; assay type: cell-based; details: PDA plate medium
# Pyricularia oryzae = assay type: cell-based; details: PDA plate medium
# Rhizoctonia solani = experiment: Antifungal test for pathogens (PDA plate), R.s; assay type: cell-based; details: PDA plate medium
# Gibberella fujikuroi = experiment: Antifungal test for pathogens (PDA plate), G.f; assay type: cell-based; details: PDA plate medium
# Rhizopus oryzae = experiment: Antifungal test for pathogens (PDA plate), R.o; assay type: cell-based; details: PDA plate medium
# Alternaria alternata = experiment: Antifungal test for pathogens (PDA plate), A.m; assay type: cell-based; details: PDA plate medium
# Sclerotinia sclerotiorum = experiment: Antifungal test for pathogens (PDA plate), S.s; assay type: cell-based; details: PDA plate medium
# Botrytis cinerea [3] = experiment: Antifungal test for pathogens (PDA plate), B.c; assay type: cell-based; details: PDA plate medium
# Glomerella cingurata = experiment: Antifungal test for pathogens (PDA plate), G.c; assay type: cell-based; details: PDA plate medium
# Fusarium oxysporum = experiment: Antifungal test for pathogens (PDA plate), F.c; assay type: cell-based; details: PDA plate medium
# Pyrenophora graminea = experiment: Antifungal test for pathogens (PDA plate), P.g; assay type: cell-based; details: PDA plate medium
# Penicillium italicum = experiment: Antifungal test for pathogens (PDA plate), P.i; assay type: cell-based; details: PDA plate medium
# Cercospora beticola = experiment: Antifungal test for pathogens (PDA plate), C.b; assay type: cell-based; details: PDA plate medium
# Rhynchosporium secalis = experiment: Antifungal test for pathogens (PDA plate), R.sec; assay type: cell-based; details: PDA plate medium
# wheat = experiment: Phytotoxicity evaluation of growth inhibition of wheat seeds, seed treatment; assay type: in vivo; details: fifteen days after seeding, untreated 21 cm
# Procedure: A pot test was used to perform a phytotoxicity evaluation of growth inhibition using a seed treatment. Compound (1(−)) or Compound (1(+)) was dissolved in DMSO so the treatment amount was 2 or 20 g ai/100 kg seeds, and the solution was smeared on wheat seeds in a vial, and eight wheat seeds were seeded in a 80 cm^2 pot. These were irrigated from below in a greenhouse. Fifteen days after seeding, the length of the wheat was evaluated.
# [4] = system: Wheat leaf blight (Septoria tritici); experiment: Antifungal test against wheat leaf blight (PDA plate); details: 19 days at 25° C.
# Procedure: Wheat leaf blight (Septoria tritici) cultured beforehand in a medium plate was punched out with a 4 mm-diameter cork borer, and inoculated in the plate media containing the agent. After inoculation, they were cultured for 19 days at 25° C., and the growth of the fungus was determined by the diameter of the growth. The growth rate of the fungus in the plate media containing the agent was compared to the growth rate of the fungus in the plate medium not containing the agent, and the filamentous fungi inhibition rate was determined using the following equation. In the equation, R is the filamentous fungi inhibition rate (%), dc is the diameter of the fungal growth in the untreated plate media, and dt is the diameter of the fungal growth in the treated plate media. R=100(dc−dt)/dc
# wheat leaf blight = experiment: Leaf blotch control effect on wheat, foliar spray treatment; details: wettable powder foliar spray 1,000 L/ha, thirty days after inoculation
# Procedure: After blow drying the sprayed leaves, the plants were sprinkled and inoculated with wheat leaf blight. Thirty days after inoculation, the morbidity of the wheat to powdery mildew was evaluated according to the criteria shown in Table 3, and the preventative value was calculated using the following equation. When the average morbidity of the sprayed plot was higher than the average morbidity of the unsprayed plot, the preventative value was 0%. Preventative value (%)=(1−(average morbidity of the sprayed plot/average morbidity of the unsprayed plot))×100.
structure (smiles),measurement,setting,value
"COC(=O)[C@]1(C)CC[C@H](Cc2ccc(Cl)cc2)[C@@]1(O)Cn1cncn1 (relative stereo) [Compound (1(−)), (1,2-cis, 1,3-cis)-3-(4-chlorobenzyl)-2-hydroxy-1-methyl-2-(1H-1,2,4-triazole-1-ylmethyl)cyclopentanecarboxylic acid methyl ester]",Preventative Value (%),Botrytis cinerea [1]; sample conc. 12.5 mg/L,64.7%
same,Preventative Value (%),Botrytis cinerea [1]; sample conc. 50.0 mg/L,100%
same,Preventative Value (%),powdery mildew; sample conc. 12.5 mg/L,96%
same,Preventative Value (%),powdery mildew; sample conc. 50.0 mg/L,98%
same,Preventative Value (%),wheat leaf rust; sample conc. 0.8 mg/L,83.5%
same,Preventative Value (%),wheat leaf rust; sample conc. 3.1 mg/L,92.9%
same,Preventative Value (%),wheat brown rust; seed treatment 2 g ai/100 kg seeds,70%
same,Preventative Value (%),wheat brown rust; seed treatment 20 g ai/100 kg seeds,100%
same,Antifungal Index of Each Strain P.n,Phaeosphaeria nodorum; Sample Conc. 1.25 mg/L,5 (>90%)
same,Antifungal Index of Each Strain P.n,Phaeosphaeria nodorum; Sample Conc. 2.5 mg/L,5 (>90%)
same,Antifungal Index of Each Strain P.n,Phaeosphaeria nodorum; Sample Conc. 5 mg/L,5 (>90%)
same,Antifungal Index of Each Strain P.h,[2]; Sample Conc. 1.25 mg/L,5 (>90%)
same,Antifungal Index of Each Strain P.h,[2]; Sample Conc. 2.5 mg/L,5 (>90%)
same,Antifungal Index of Each Strain P.h,[2]; Sample Conc. 5 mg/L,5 (>90%)
same,Antifungal Index of Each Strain M.n,Microdochium nivale; Sample Conc. 1.25 mg/L,3 (80%-70%)
same,Antifungal Index of Each Strain M.n,Microdochium nivale; Sample Conc. 2.5 mg/L,5 (>90%)
same,Antifungal Index of Each Strain M.n,Microdochium nivale; Sample Conc. 5 mg/L,5 (>90%)
same,Antifungal Index of Each Strain G.g,Gaeumannomyces graminis; Sample Conc. 1.25 mg/L,5 (>90%)
same,Antifungal Index of Each Strain G.g,Gaeumannomyces graminis; Sample Conc. 2.5 mg/L,5 (>90%)
same,Antifungal Index of Each Strain G.g,Gaeumannomyces graminis; Sample Conc. 5 mg/L,5 (>90%)
same,Antifungal Index of Each Strain F.g,Fusarium graminearum; Sample Conc. 1.25 mg/L,5 (>90%)
same,Antifungal Index of Each Strain F.g,Fusarium graminearum; Sample Conc. 2.5 mg/L,5 (>90%)
same,Antifungal Index of Each Strain F.g,Fusarium graminearum; Sample Conc. 5 mg/L,5 (>90%)
same,Antifungal Index of Each Strain U.n,Ustilago nuda; Sample Conc. 1.25 mg/L,5 (>90%)
same,Antifungal Index of Each Strain U.n,Ustilago nuda; Sample Conc. 2.5 mg/L,5 (>90%)
same,Antifungal Index of Each Strain U.n,Ustilago nuda; Sample Conc. 5 mg/L,5 (>90%)
same,Antifungal Index of Each Strain P.o,Pyricularia oryzae; Sample Conc. 1.25 mg/L,4 (90%-80%)
same,Antifungal Index of Each Strain P.o,Pyricularia oryzae; Sample Conc. 2.5 mg/L,5 (>90%)
same,Antifungal Index of Each Strain P.o,Pyricularia oryzae; Sample Conc. 5 mg/L,5 (>90%)
same,Antifungal Index of Each Strain R.s,Rhizoctonia solani; Sample Conc. 1.25 mg/L,5 (>90%)
same,Antifungal Index of Each Strain R.s,Rhizoctonia solani; Sample Conc. 2.5 mg/L,5 (>90%)
same,Antifungal Index of Each Strain R.s,Rhizoctonia solani; Sample Conc. 5 mg/L,5 (>90%)
same,Antifungal Index of Each Strain G.f,Gibberella fujikuroi; Sample Conc. 1.25 mg/L,5 (>90%)
same,Antifungal Index of Each Strain G.f,Gibberella fujikuroi; Sample Conc. 2.5 mg/L,5 (>90%)
same,Antifungal Index of Each Strain G.f,Gibberella fujikuroi; Sample Conc. 5 mg/L,5 (>90%)
same,Antifungal Index of Each Strain R.o,Rhizopus oryzae; Sample Conc. 1.25 mg/L,5 (>90%)
same,Antifungal Index of Each Strain R.o,Rhizopus oryzae; Sample Conc. 2.5 mg/L,5 (>90%)
same,Antifungal Index of Each Strain R.o,Rhizopus oryzae; Sample Conc. 5 mg/L,5 (>90%)
same,Antifungal Index of Each Strain A.m,Alternaria alternata; Sample Conc. 1.25 mg/L,3 (80%-70%)
same,Antifungal Index of Each Strain A.m,Alternaria alternata; Sample Conc. 2.5 mg/L,4 (90%-80%)
same,Antifungal Index of Each Strain A.m,Alternaria alternata; Sample Conc. 5 mg/L,5 (>90%)
same,Antifungal Index of Each Strain S.s,Sclerotinia sclerotiorum; Sample Conc. 1.25 mg/L,5 (>90%)
same,Antifungal Index of Each Strain S.s,Sclerotinia sclerotiorum; Sample Conc. 2.5 mg/L,5 (>90%)
same,Antifungal Index of Each Strain S.s,Sclerotinia sclerotiorum; Sample Conc. 5 mg/L,5 (>90%)
same,Antifungal Index of Each Strain B.c,Botrytis cinerea [3]; Sample Conc. 1.25 mg/L,5 (>90%)
same,Antifungal Index of Each Strain B.c,Botrytis cinerea [3]; Sample Conc. 2.5 mg/L,5 (>90%)
same,Antifungal Index of Each Strain B.c,Botrytis cinerea [3]; Sample Conc. 5 mg/L,5 (>90%)
same,Antifungal Index of Each Strain G.c,Glomerella cingurata; Sample Conc. 1.25 mg/L,5 (>90%)
same,Antifungal Index of Each Strain G.c,Glomerella cingurata; Sample Conc. 2.5 mg/L,5 (>90%)
same,Antifungal Index of Each Strain G.c,Glomerella cingurata; Sample Conc. 5 mg/L,5 (>90%)
same,Antifungal Index of Each Strain F.c,Fusarium oxysporum; Sample Conc. 1.25 mg/L,5 (>90%)
same,Antifungal Index of Each Strain F.c,Fusarium oxysporum; Sample Conc. 2.5 mg/L,5 (>90%)
same,Antifungal Index of Each Strain F.c,Fusarium oxysporum; Sample Conc. 5 mg/L,5 (>90%)
same,Antifungal Index of Each Strain P.g,Pyrenophora graminea; Sample Conc. 0.08 mg/L,2 (70%-60%)
same,Antifungal Index of Each Strain P.g,Pyrenophora graminea; Sample Conc. 0.16 mg/L,3 (80%-70%)
same,Antifungal Index of Each Strain P.g,Pyrenophora graminea; Sample Conc. 0.31 mg/L,4 (90%-80%)
same,Antifungal Index of Each Strain P.g,Pyrenophora graminea; Sample Conc. 0.63 mg/L,5 (>90%)
same,Antifungal Index of Each Strain P.i,Penicillium italicum; Sample Conc. 0.08 mg/L,1 (<60%)
same,Antifungal Index of Each Strain P.i,Penicillium italicum; Sample Conc. 0.16 mg/L,1 (<60%)
same,Antifungal Index of Each Strain P.i,Penicillium italicum; Sample Conc. 0.31 mg/L,3 (80%-70%)
same,Antifungal Index of Each Strain P.i,Penicillium italicum; Sample Conc. 0.63 mg/L,5 (>90%)
same,Antifungal Index of Each Strain C.b,Cercospora beticola; Sample Conc. 0.08 mg/L,5 (>90%)
same,Antifungal Index of Each Strain C.b,Cercospora beticola; Sample Conc. 0.16 mg/L,5 (>90%)
same,Antifungal Index of Each Strain C.b,Cercospora beticola; Sample Conc. 0.31 mg/L,5 (>90%)
same,Antifungal Index of Each Strain C.b,Cercospora beticola; Sample Conc. 0.63 mg/L,5 (>90%)
same,Antifungal Index of Each Strain R.sec,Rhynchosporium secalis; Sample Conc. 0.08 mg/L,5 (>90%)
same,Antifungal Index of Each Strain R.sec,Rhynchosporium secalis; Sample Conc. 0.16 mg/L,5 (>90%)
same,Antifungal Index of Each Strain R.sec,Rhynchosporium secalis; Sample Conc. 0.31 mg/L,5 (>90%)
same,Antifungal Index of Each Strain R.sec,Rhynchosporium secalis; Sample Conc. 0.63 mg/L,5 (>90%)
same,Average Plant Length (cm),wheat; wheat seed treatment 2 g ai/100 kg seeds,11 cm
same,Average Plant Length (cm),wheat; wheat seed treatment 20 g ai/100 kg seeds,6 cm
same,Antifungal Index,[4]; sample conc. 0.31 mg/L,1 (<60%)
same,Antifungal Index,[4]; sample conc. 0.63 mg/L,2 (70%-60%)
same,Antifungal Index,[4]; sample conc. 1.25 mg/L,4 (90%-80%)
same,Preventative Value (%),wheat leaf blight; sample conc. 12.5 mg/L,37.5%
same,Preventative Value (%),wheat leaf blight; sample conc. 50 mg/L,65%
